Data taken from PMC3964211, “Pharmacokinetic modeling optimizes inhibition of the ‘undruggable’ EWS-FLI1 transcription factor in Ewing Sarcoma” (Oncotarget, 2013).

How the values were obtained:
[1] = Pharmacokinetics in SD rats, single IV injection; assay type: in vivo, Sprague-Dawly (SD) rats; conditions: for AUClast / AUC∞ / Clearance / Observed Cmax / Terminal Elimination Half-Life: analyte (S)-YK-4-279 in plasma
Protocol: (§1) To optimize dosing in animals, we determined the pharmacokinetics of YK-4-279 and its single enantiomers in Sprague-Dawly (SD) rats. Three rats of each gender were assigned to nine dose groups. Animals in Groups 1 through 3 received a single intravenous (IV) injection of racemic mixture, (S)-YK-4-279, or (R)-YK-4-279 at a dose of 25 mg/kg. Animals in Groups 4 through 9 received a single oral gavage administration of racemic mixture, (S)-YK-4-279, or (R)-YK-4-279 at a dosage level of 25 or 50 mg/kg. […] However, given that approximately 50 percent of the racemic mixture is (S)-YK-4-279 and the clearance […] the dose, the IV clearance of (S)-YK-4-279 is considered to be similar whether a racemic mixture or only (S)-YK-4-279 is administered. Systemic exposure to (S)-YK-4-279 was evaluated using Cmax and AUC values. Cmax and AUC8 values were similar between males and females for a given dose group. With an expected enantiomer ratio of 1:1 in the racemic dose, Group 2 animals would have received a 2-fold higher dose of (S)-YK-4-279 than Group 1 animals. […] Absolute bioavailability of (S)-YK-4-279 following gavage administration, using cremophor/ethanol as an excipient, in SD rats was only 2–6% (Table 2).
(§2) Nine SD rats of each gender were assigned to nine dose groups. Groups 1 through 3 received a single IV injection of racemic mixture, (S)-YK-4-279, or (R)-YK-4-279 at a dose of 25 mg/kg. Groups 4 through 9 received a single gavage administration of racemic mixture, (S)-YK-4-279, or (R)-YK-4-279 at a dosage level of 25 or 50 mg/kg. Blood samples were collected from one animal per group per time point at target time points of pre-dose, 5, 15, 30 and 60 minutes, and 2, 4, 8 and 12 hours following dosing. Plasma was obtained from the samples and analyzed for (S) and (R)-YK-4-279 concentrations.
(§3) The plasma and tumor sample analysis was performed using calibration standards and Quality Control (QC) samples prepared in control rat or mouse plasma and tumor tissues. Plasma and tumor calibration standards were prepared from stock solutions of YK-4-279. The calibration standards, blanks, QC samples, and study samples were then processed by solid-liquid extraction (SLE) followed by analysis using liquid chromatography with mass spectrometry (LC-MS). The LC-MS systems used for the analysis of YK-4-279 was composed of Shimadzo prominence pump and auto-sampler (Kyoto, Japan), a Sciex API 5000 MS (Toronto, Ontario), with turbo ion spary in the positive ion mode. The samples for the analysis of total YK-4-279 were injected into a 50 × 2 mm Gemini- NX, 5 ¼m column (Phenomenex, Torrance, CA). The samples for the analysis of the specific enantiomers of YK-4-279 were injected into a 150 × 2 mm Lux Cellulose-2, 3 ¼m Phenomenex column. The transitions monitored were 366 amu to 135 amu for YK-4-279 and 369 amu to 138 amu for the YK-4-279-d3 internal standard. YK-4-279 concentrations were calculated using peak area response ratios and a regression equation constructed from the concentrations and peak area response ratios of the calibration standards. The lower limit of quantitation was 5.0 ng/mL in plasma and […] in tumor tissue. The concentration-time profiles were evaluated by compartmental modeling and non-compartmental analysis using WinNonlin (Pharsight Corporation, Mountain View, CA). The PK parameters obtained from the compartmental modeling were used in simulations to identify optimal dose level and dosing schedule for maintaining plasma concentration of (S)-YK-4-279 above 3 ¼M.

[2] = Pharmacokinetics in SD rats, single oral gavage; assay type: in vivo, Sprague-Dawly (SD) rats; conditions: analyte (S)-YK-4-279 in plasma
Protocol: as §1, §2, §3

[3] = Pharmacokinetics in C57BL/6 mice, IV or IP 75 mg/kg; assay type: in vivo; conditions: IV 75 mg/kg
Protocol: The poor oral bioavailability determined from the rat study caused us to focus on IV delivery. Since mice often metabolize compounds differently from rats, we also evaluated the intraperitoneal (IP) PK profle and compared it to the IV profile. We determined pharmacokinetics in C57BL/6 mice given IV (Figure 2A) or IP (Figure 2B) administrations of 75 mg/kg YK-4-279, which was the maximal solubility of compound in 20% Cremophor EL. […] In addition, drug levels in tumor were measured using SCID/bg mice with orthotopic xenografts that were treated with daily IV injections of (S)-YK-4-279 for 6 days. […]
The plasma and tumor sample analysis was performed using calibration standards and Quality Control (QC) samples prepared in control rat or mouse plasma and tumor tissues. […] The transitions monitored were 366 amu to 135 amu for YK-4-279 and 369 amu to 138 amu for the YK-4-279-d3 internal standard. YK-4-279 concentrations were calculated using peak area response ratios and a regression equation constructed from the concentrations and peak area response ratios of the calibration standards. The lower limit of quantitation was 5.0 ng/mL in plasma and […] in tumor tissue. The concentration-time profiles were evaluated by compartmental modeling and non-compartmental analysis using WinNonlin (Pharsight Corporation, Mountain View, CA). […]

[4] = SD rats, female (n=9), single IV injection 25 mg/kg
[5] = SD rats, male (n=9), single IV injection 25 mg/kg
[6] = female (n=9), oral gavage 25 mg/kg
[7] = female (n=9), oral gavage 50 mg/kg
[8] = male (n=9), oral gavage 25 mg/kg
[9] = male (n=9), oral gavage 50 mg/kg
[10] = SD rats, single IV injection 25 mg/kg, average of males and females, analyte (S)-YK-4-279

For `COc1ccc(C(=O)C[C@]2(O)C(=O)Nc3c(Cl)ccc(Cl)c32)cc1` [(R)-YK-4-279], the “Clearance slower than the clearance of (S)-YK-4-279” value ([1]; SD rats (Supplemental table 1, not available)) was “approximately 25%”, the AUClast [1, 4] was “BLOQ” and the “AUC∞” value [1, 4] was “BLOQ”. For the same compound, the Clearance [1, 4] was “BLOQ”, the “Observed Cmax” value [1, 4] was “BLOQ” and the “Terminal Elimination Half-Life” value [1, 4] was “BLOQ”. The AUClast [1, 5] was “BLOQ”, the “AUC∞” value [1, 5] was “BLOQ” and the Clearance [1, 5] was “BLOQ”. For the same compound, the “Observed Cmax” value [1, 5] was “BLOQ1”, the “Terminal Elimination Half-Life” value [1, 5] was “BLOQ” and the AUClast [2, 6] was “BLOQ”. The “AUC∞” value [2, 6] was “BLOQ”, the “Absolute Bioavailability” value [2, 6] was “BLOQ” and the “Apparent Clearance” value [2, 6] was “BLOQ”. The “Observed Cmax” value [2, 6] was “BLOQ”, the “Observed Tmax” value [2, 6] was “BLOQ” and the “Terminal Elimination Half-Life” value [2, 6] was “BLOQ”. The AUClast [2, 7] was “BLOQ”, the “AUC∞” value [2, 7] was “BLOQ” and the “Absolute Bioavailability” value [2, 7] was “BLOQ”. The “Apparent Clearance” value [2, 7] was “BLOQ”, the “Observed Cmax” value [2, 7] was “BLOQ” and the “Observed Tmax” value [2, 7] was “BLOQ”. The “Terminal Elimination Half-Life” value [2, 7] was “BLOQ”, the AUClast [2, 8] was “BLOQ” and the “AUC∞” value [2, 8] was “BLOQ”. The “Absolute Bioavailability” value [2, 8] was “BLOQ”, the “Apparent Clearance” value [2, 8] was “BLOQ” and the “Observed Cmax” value [2, 8] was “BLOQ1”. The “Observed Tmax” value [2, 8] was “BLOQ”, the “Terminal Elimination Half-Life” value [2, 8] was “BLOQ” and the AUClast [2, 9] was “BLOQ”. The “AUC∞” value [2, 9] was “BLOQ”, the “Absolute Bioavailability” value [2, 9] was “BLOQ” and the “Apparent Clearance” value [2, 9] was “BLOQ”. The “Observed Cmax” value [2, 9] was “BLOQ”, the “Observed Tmax” value [2, 9] was “BLOQ” and the “Terminal Elimination Half-Life” value [2, 9] was “BLOQ”.

With `COc1ccc(C(=O)CC2(O)C(=O)Nc3c(Cl)ccc(Cl)c32)cc1` (centres unmarked) [YK-4-279] the AUClast [1, 4] was 25.6 hr*¼M, the “AUC∞” value [1, 4] was 25.9 hr*¼M and the Clearance [1, 4] was 44 mL/min/kg. The “Observed Cmax” value [1, 4] was 37.1 ¼M, the “Terminal Elimination Half-Life” value [1, 4] was 0.602 h and the AUClast [1, 5] was 26.5 hr*¼M. The “AUC∞” value [1, 5] was 26.7 hr*¼M, the Clearance [1, 5] was 42.67 mL/min/kg and the “Observed Cmax” value [1, 5] was 39.9 ¼M. The “Terminal Elimination Half-Life” value [1, 5] was 0.564 h, the Average clearance [1, 10] was 43.33 mL/min/kg and the Average elimination half-life [1, 10] was 0.583 h. For the same compound, the AUClast [2, 6] was 1.07 hr*¼M, the “AUC∞” value [2, 6] was 1.31 hr*¼M and the “Absolute Bioavailability” value [2, 6] was 5.06%. The “Apparent Clearance” value [2, 6] was 52,200 mL/hr/kg, the “Observed Cmax” value [2, 6] was 0.513 ¼M and the “Observed Tmax” value [2, 6] was 0.500 h. The “Terminal Elimination Half-Life” value [2, 6] was 1.56 h, the AUClast [2, 7] was 3.09 hr*¼M and the “AUC∞” value [2, 7] was 3.14 hr*¼M. For the same compound, the “Absolute Bioavailability” value [2, 7] was 6.07%, the “Apparent Clearance” value [2, 7] was 43,400 mL/hr/kg and the “Observed Cmax” value [2, 7] was 0.647 ¼M. For the same compound, the “Observed Tmax” value [2, 7] was 0.500 h, the “Terminal Elimination Half-Life” value [2, 7] was 1.97 h and the AUClast [2, 8] was 0.563 hr*¼M. The “AUC∞” value [2, 8] was 0.754 hr*¼M, the “Absolute Bioavailability” value [2, 8] was 2.83% and the “Apparent Clearance” value [2, 8] was 90,300 mL/hr/kg. The “Observed Cmax” value [2, 8] was 0.142 ¼M, the “Observed Tmax” value [2, 8] was 1.00 h and the “Terminal Elimination Half-Life” value [2, 8] was 3.84 h. For the same compound, the AUClast [2, 9] was 1.04 hr*¼M, the “AUC∞” value [2, 9] was 1.18 hr*¼M and the “Absolute Bioavailability” value [2, 9] was 2.21%. The “Apparent Clearance” value [2, 9] was 116,000 mL/hr/kg, the “Observed Cmax” value [2, 9] was 0.241 ¼M and the “Observed Tmax” value [2, 9] was 2.00 h. The “Terminal Elimination Half-Life” value [2, 9] was 4.23 h and the “Time that peak levels would exceed 3 ¼M” value [3] was ~ 1 hour.
